Results as given in patent US20040214832A1, “Piperazine derivative renin inhibitors” (priority 2003, published 2004).

target: T1, human renin (Homo sapiens, UniProt P00797); experiment: Determination of renin IC50 by tGFP FRET assay; type: biochemical; conditions: Human recombinant renin, tandem GFP substrate 650 nM, 60 min incubation with compound, pH 7.4, 11-point curve
T1 sequence (P00797 67-406): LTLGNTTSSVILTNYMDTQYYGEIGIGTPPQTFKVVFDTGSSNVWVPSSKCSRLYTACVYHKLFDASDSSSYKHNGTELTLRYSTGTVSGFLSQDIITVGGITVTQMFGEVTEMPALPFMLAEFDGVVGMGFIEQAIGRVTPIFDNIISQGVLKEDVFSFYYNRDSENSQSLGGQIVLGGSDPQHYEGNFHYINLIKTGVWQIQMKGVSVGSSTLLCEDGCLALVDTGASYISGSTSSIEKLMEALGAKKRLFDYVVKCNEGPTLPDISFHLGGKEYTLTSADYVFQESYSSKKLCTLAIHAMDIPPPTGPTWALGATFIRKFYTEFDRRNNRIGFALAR
From the text: Determination of Renin IC50 by tGFP FRET Assay
The tGFP FRET (fluorescence resonance energy transfer) assay utilizes a tandem GFP substrate (60 kDa, Discovery Technologies) containing nine amino acid recognition sequences for human renin flanked by two GFP proteins. The assay is used to determine the ability of a compound to act as an inhibitor of renin enzymatic activity by determination of that concentration of test compound that inhibits by 50% (IC50) the ability of renin to cleave the tandem GFP substrate. The IC50 values are determined over an 11-point curve at concentrations of 100 μM to 1 pM. Each compound concentration used to construct the curve was dependent on renin inhibitor potency. For example, subnanomolar IC50 values were determined over an 11-point curve at concentrations of 10 μM to 1 pM. All other IC50 values were determined over an 11-point curve at concentrations of 100 μM to 0.0065 μM. The concentrations were achieved by diluting a 9.1 nM stock of Human recombinant renin in the appropriate amount of buffer containing 50 mM HEPES, 1 mM EDTA, 1% PEG (8000 MW), 1 mM DTT, 0.1% BSA, pH 7.4 to achieve the final concentration of 50.4 μIU. The tGFP substrate stock solution of 43 μM was diluted with the appropriate amount of the above buffer to obtain the final concentration of 650 nM. In addition, 1 μl of the compound is diluted in dimethylsulfoxide (DMSO) to represent an […] log scale (5% final). The SR renin and compound are added to a 384 capacity plate by an automated robot (BIOMEK). The plate is incubated for 60 minutes; upon completion the tGFP substrate is added.
The IC50 is determined by monitoring the increase in […] at 432/432 nm excitation, 530/475 nm emission with a cutoff at 515/455 nm, in a fluorometric plate reader.

Row | SMILES | IC50 [nM]
1 | COc1ccccc1COCCCOc1ccc(N2C(=O)CNC[C@H]2COc2ccc3ccccc3c2)cc1 [Example 1, (6S)-1-{4-[3-(2-methoxybenzyloxy)-propoxy]-phenyl}-6-(naphthalen-2-yloxymethyl)-piperazin-2-one] | 66
2 | COc1ccccc1COCCCOc1ccc(N2C(=O)CNC[C@@H]2COCc2ccc(Cl)c(Cl)c2)cc1 [Example 2, (6R)-6-(3,4-dichlorobenzyloxymethyl)-1-{4-[3-(2-methoxybenzyloxy)-propoxy]-phenyl}-piperazin-2-one] | 181
3 | COc1ccccc1COCCCOc1ccc(N2C(=O)CNC[C@@H]2COCc2ccccc2F)cc1 [Example 3, (6R)-6-(2-fluorobenzyloxymethyl)-1-{4-[3-(2-methoxybenzyloxy)-propoxy]-phenyl}-piperazin-2-one] | 225
4 | COc1ccccc1COCCCOc1ccc(N2C(=O)CNC[C@@H]2COCc2ccc(F)c(F)c2)cc1 [Example 4, (6R)-6-(3,4-difluorobenzyloxymethyl)-1-{4-[3-(2-methoxybenzyloxy)-propoxy]-phenyl}-piperazin-2-one] | 246
5 | COc1ccccc1COCCCOc1ccc(N2C(=O)CNC[C@@H]2COCc2ccc(Cl)cc2)cc1 [Example 5, (6R)-6-(4-chlorobenzyloxymethyl)-1-{4-[3-(2-methoxybenzyloxy)-propoxy]-phenyl}-piperazin-2-one] | 295
6 | COc1ccccc1COCCCOc1ccc(N2C(=O)CNC[C@@H]2COCc2cccc(Cl)c2)cc1 [Example 6, (6R)-6-(3-chlorobenzyloxymethyl)-1-{4-[3-(2-methoxybenzyloxy)-propoxy]-phenyl}-piperazin-2-one] | 325
7 | COc1ccccc1COCCCOc1ccc(N2C(=O)CNC[C@@H]2COCc2ccc(C)cc2)cc1 [Example 7, (6R)-1-{4-[3-(2-methoxybenzyloxy)-propoxy]-phenyl}-6-(4-methylbenzyloxymethyl)-piperazin-2-one] | 337
8 | COc1ccccc1COCCCOc1ccc(N2C(=O)CNC[C@@H]2COCc2ccc(F)cc2)cc1 [Example 8, (6R)-6-(4-fluorobenzyloxymethyl)-1-{4-[3-(2-methoxybenzyloxy)-propoxy]-phenyl}-piperazin-2-one] | 454
9 | COc1cccc(COC[C@H]2CNCC(=O)N2c2ccc(OCCCOCc3ccccc3OC)cc2)c1 [Example 9, (6R)-6-(3-methoxybenzyloxymethyl)-1-{4-[3-(2-methoxybenzyloxy)-propoxy]-phenyl}-piperazin-2-one] | 612

Now from value to compound:

Row | IC50 [nM] | SMILES
10 | 880 | COc1ccccc1COCCCOc1ccc(N2C(=O)CNC[C@@H]2COCc2ccccc2OC)cc1 [Example 10, (6R)-6-(2-methoxybenzyloxymethyl)-1-{4-[3-(2-methoxybenzyloxy)-propoxy]-phenyl}-piperazin-2-one]
11 | 1570 | COc1ccccc1COCCCOc1ccc(N2C(=O)CNC[C@@H]2COCc2cc(F)cc(F)c2)cc1 [Example 11, (6R)-6-(3,5-difluorobenzyloxymethyl)-1-{4-[3-(2-methoxybenzyloxy)-propoxy]-phenyl}-piperazin-2-one]
12 | 3860 | COc1ccc(COC[C@H]2CNCC(=O)N2c2ccc(OCCCOCc3ccccc3OC)cc2)cc1 [Example 12, (6R)-6-(4-methoxybenzyloxymethyl)-1-{4-[3-(2-methoxybenzyloxy)-propoxy]-phenyl}-piperazin-2-one]
13 | 68 | COc1ccccc1COCCCOc1ccc(N2C(=O)CNC[C@@H]2COCc2ccc(C(F)(F)F)cc2)cc1 [Example 13, (6R)-1-{4-[3-(2-methoxybenzyloxy)-propoxy]-phenyl}-6-(4-trifluoromethylbenzyloxymethyl)-piperazin-2-one]
14 | 223 | COc1ccccc1COCCCOc1ccc(N2C(=O)CNC[C@@H]2COCc2ccccc2Cl)cc1 [Example 14, (6R)-6-(2-chlorobenzyloxymethyl)-1-{4-[3-(2-methoxybenzyloxy)-propoxy]-phenyl}-piperazin-2-one]
